We go through 28 molecules from patent publication US9708316B2 (BRISTOL-MYERS SQUIBB COMPANY, priority 2014, dated 2017).

For test [1], the target named is HIS-TGFβR2 WT (Homo sapiens, UniProt P37173). Description: HTRF probe-displacement assay, HIS-TGFβR2 WT. It is filed as binding.
Test [2] deals with T1, HIS-TGFβR1 T204D (Homo sapiens, UniProt P36897, T204D).
T1 sequence (P36897 34-503 T204D): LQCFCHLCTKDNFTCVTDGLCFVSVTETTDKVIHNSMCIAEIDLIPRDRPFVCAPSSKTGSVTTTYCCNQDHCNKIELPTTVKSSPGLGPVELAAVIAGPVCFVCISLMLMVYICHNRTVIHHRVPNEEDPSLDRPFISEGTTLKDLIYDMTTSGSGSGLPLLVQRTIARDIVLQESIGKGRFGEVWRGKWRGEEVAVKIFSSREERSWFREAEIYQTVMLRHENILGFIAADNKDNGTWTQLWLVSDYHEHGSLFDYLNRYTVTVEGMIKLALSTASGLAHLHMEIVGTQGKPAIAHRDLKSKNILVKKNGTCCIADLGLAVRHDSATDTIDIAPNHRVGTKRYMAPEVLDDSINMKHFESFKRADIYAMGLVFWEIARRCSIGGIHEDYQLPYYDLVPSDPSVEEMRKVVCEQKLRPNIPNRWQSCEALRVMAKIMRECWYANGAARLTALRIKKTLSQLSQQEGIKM
Put plainly: HTRF probe-displacement assay, HIS-TGFβR1 T204D. It is filed as binding. To be noted: read-out: TGFβR1 (μM) IC50.

Each structure is given as a SMILES string. Some results are limits rather than exact numbers.

HIS-TGFβR2 WT, sequence (P37173 23-567): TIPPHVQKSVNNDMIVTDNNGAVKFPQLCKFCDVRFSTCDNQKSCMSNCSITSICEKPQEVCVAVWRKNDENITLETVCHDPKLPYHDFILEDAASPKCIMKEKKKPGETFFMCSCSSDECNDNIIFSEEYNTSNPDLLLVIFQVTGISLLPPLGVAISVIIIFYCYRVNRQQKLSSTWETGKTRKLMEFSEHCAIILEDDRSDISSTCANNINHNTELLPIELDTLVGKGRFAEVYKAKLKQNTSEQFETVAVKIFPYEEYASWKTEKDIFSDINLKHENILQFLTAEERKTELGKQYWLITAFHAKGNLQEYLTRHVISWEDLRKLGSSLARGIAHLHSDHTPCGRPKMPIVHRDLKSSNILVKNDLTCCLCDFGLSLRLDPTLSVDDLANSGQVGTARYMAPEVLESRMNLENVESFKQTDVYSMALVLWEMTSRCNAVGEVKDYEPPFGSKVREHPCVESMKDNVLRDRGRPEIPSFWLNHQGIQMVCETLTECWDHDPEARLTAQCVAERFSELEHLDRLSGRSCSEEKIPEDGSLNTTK

As for `CCOc1ccnc2c(-c3cccc(C(F)F)n3)c(-c3ccnc(NC(C)=O)c3)[nH]c12` [Example 125, N-(4-{3-[6-(Difluoromethyl)pyridin-2-yl]-7-ethoxy-1H-pyrrolo[3,2-b]pyridin-2-yl}pyridin-2-yl)acetamide], the IC50 in test [1] was greater than 15 µM; in test [2] it was 0.003 µM.
Regarding `CC(=O)Nc1cc(-c2[nH]c3c(Cl)ccnc3c2-c2ccc(F)cn2)ccn1` [Example 61, N-{4-[7-Chloro-3-(5-fluoropyridin-2-yl)-1H-pyrrolo[3,2-b]pyridin-2-yl]pyridin-2-yl}acetamide], the figures for the IC50 in test [1] and in test [2] were 0.98 µM and 0.005 µM, respectively.
As for `COc1nc(-c2c(-c3ccnc(NC(C)=O)c3)[nH]c3cccnc23)cs1` [Example 201, N-(4-(3-(2-Methoxythiazol-4-yl)-1H-pyrrolo[3,2-b]pyridin-2-yl)pyridin-2-yl)acetamide], the half-maximal inhibitory concentration (IC50) in test [1] is 1.53 µM; in test [2] it was 0.0275 µM.
Take `CC(=O)Nc1cc(-c2[nH]c3c(CN4CC(F)(F)C4)ccnc3c2-c2cccc(C(F)F)n2)ccn1` [Example 152, N-(4-{7-[(3,3-Difluoroazetidin-1-yl)methyl]-3-[6-(difluoromethyl)pyridin-2-yl]-1H-pyrrolo[3,2-b]pyridin-2-yl}pyridin-2-yl)acetamide]: the IC50 in test [1] worked out at 4.09 µM; in test [2], 0.002 µM.
In the same order, the values of `COc1ccc(-c2c(-c3ccnc(NC(C)=O)c3)[nH]c3c(C(C)=O)ccnc23)cn1` [Example 298, N-(4-(7-Acetyl-3-(6-methoxypyridin-3-yl)-1H-pyrrolo[3,2-b]pyridin-2-yl)pyridin-2-yl)acetamide] are 0.12 µM and 0.008 µM.
Regarding `COc1ncc(-c2c(-c3ccnc(NC(C)=O)c3)[nH]c3cccnc23)cn1` [Example 27, N-{4-[3-(2-Methoxypyrimidin-5-yl)-1H-pyrrolo[3,2-b]pyridin-2-yl]pyridin-2-yl}acetamide], the IC50 is greater than 15 µM in test [1] and 0.72 µM in test [2].
As for `O=C(CNCCN1CCOCC1)Nc1cc(-c2[nH]c3cc(Cl)cnc3c2-c2ccc(F)cn2)ccn1` [Example 241, N-{4-[6-Chloro-3-(5-fluoropyridin-2-yl)-1H-pyrrolo[3,2-b]pyridin-2-yl]pyridin-2-yl}-2-{[2-(morpholin-4-yl)ethyl]amino}acetamide], the IC50 in test [1] is 3.67 µM; in test [2] it was 0.004 µM.
Turning to `CC(=O)Nc1cc(-c2[nH]c3c(Cl)ccnc3c2-c2cccc(F)n2)ccn1` [Example 64, N-{4-[7-Chloro-3-(6-fluoropyridin-2-yl)-1H-pyrrolo[3,2-b]pyridin-2-yl]pyridin-2-yl}acetamide], the half-inhibitory concentration (IC50) in test [1] stood at 0.3 µM; in test [2], 0.009 µM.
The corresponding values for `CC(=O)Nc1cc(-c2[nH]c3cccnc3c2-c2cccc3ccncc23)ccn1` [Example 19, N-{4-[3-(Isoquinolin-8-yl)-1H-pyrrolo[3,2-b]pyridin-2-yl]pyridin-2-yl}acetamide] are 0.19 µM and 0.023 µM.
With `CC(=O)Nc1cc(-c2[nH]c3c(C(C)C)ccnc3c2-c2cccc(C(F)F)n2)ccn1` [Example 133, N-(4-{3-[6-(Difluoromethyl)pyridin-2-yl]-7-(propan-2-yl)-1H-pyrrolo[3,2-b]pyridin-2-yl}pyridin-2-yl)acetamide], the values for the IC50 in test [1] and in test [2] were greater than 15 µM and 0.001 µM, respectively.
On to `CC(=O)Nc1cc(-c2[nH]c3c(C(C)O)ccnc3c2-c2nc(C)cs2)ccn1` (centres unmarked) [Example 232, N-(4-(7-(1-Hydroxyethyl)-3-(4-methylthiazol-2-yl)-1H-pyrrolo[3,2-b]pyridin-2-yl)pyridin-2-yl)acetamide], for which the IC50 is 0.115 µM in test [1] and 0.003 µM in test [2].
As to `CC(=O)Nc1cc(-c2[nH]c3c(C(C)(C)O)ccnc3c2-c2cccc(C(F)F)n2)ccn1` [Example 154, N-(4-{3-[6-(Difluoromethyl)pyridin-2-yl]-7-(2-hydroxypropan-2-yl)-1H-pyrrolo[3,2-b]pyridin-2-yl}pyridin-2-yl)acetamide], the IC50 turned out to be 1.77 µM in test [1] and 0.001 µM in test [2].
Regarding `COc1ccc(-c2c(-c3ccnc(NC(C)=O)c3)[nH]c3cccnc23)nc1C` [Example 237, N-(4-(3-(5-Methoxy-6-methylpyridin-2-yl)-1H-pyrrolo[3,2-b]pyridin-2-yl)pyridin-2-yl)acetamide], the IC50 is greater than 15 µM in test [1] and 0.111 µM in test [2].
For the molecule `CC(=O)Nc1cc(-c2[nH]c3c(CN4CCN(C)CC4)ccnc3c2-c2cccc(C(F)F)n2)ccn1` [Example 139, N-(4-{3-[6-(Difluoromethyl)pyridin-2-yl]-7-[(4-methylpiperazin-1-yl)methyl]-1H-pyrrolo[3,2-b]pyridin-2-yl}pyridin-2-yl)acetamide], the IC50 worked out at 8.47 µM in test [1] and 0.001 µM in test [2].
In the same order, the values of `CC(=O)Nc1cc(-c2[nH]c3cccnc3c2-c2cccc(Cl)n2)ccn1` [Example 3, N-{4-[3-(6-Chloropyridin-2-yl)-1H-pyrrolo[3,2-b]pyridin-2-yl]pyridin-2-yl}acetamide] are 0.089 µM and 0.001 µM.
Consider `CC(=O)Nc1cc(-c2[nH]c3cc(Cl)cnc3c2-c2ccc(F)cn2)ccn1` [Example 42, N-{4-[6-Chloro-3-(5-fluoropyridin-2-yl)-1H-pyrrolo[3,2-b]pyridin-2-yl]pyridin-2-yl}acetamide], for which the half-inhibitory concentration (IC50) in test [1] is 0.46 µM; in test [2], 0.004 µM.
The corresponding values for `CC(=O)Nc1cc(-c2[nH]c3cc(F)cnc3c2-c2ncc(C(F)F)s2)ccn1` [Example 182, N-(4-(3-(5-(Difluoromethyl)thiazol-2-yl)-6-fluoro-1H-pyrrolo[3,2-b]pyridin-2-yl)pyridin-2-yl)acetamide] are greater than 15 µM and 0.182 µM.
Regarding `COc1ccc(-c2c(-c3ccnc(NC(C)=O)c3)[nH]c3cc(S(C)(=O)=O)cnc23)nc1` [Example 91, N-{4-[6-Methanesulfonyl-3-(5-methoxypyridin-2-yl)-1H-pyrrolo[3,2-b]pyridin-2-yl]pyridin-2-yl}acetamide], the IC50 in test [1] was greater than 15 µM; in test [2], 0.019 µM.
In the case of `COc1ccc(-c2c(-c3ccnc(NC(C)=O)c3)[nH]c3cc(C(=O)C(F)(F)F)cnc23)nc1` [Example 296, N-(4-(3-(5-Methoxypyridin-2-yl)-6-(2,2,2-trifluoroacetyl)-1H-pyrrolo[3,2-b]pyridin-2-yl)pyridin-2-yl)acetamide], the IC50 in test [1] came out at 7.78 µM; in test [2] it was 0.002 µM.
Consider `CC(=O)Nc1cc(-c2[nH]c3c(CO)ccnc3c2-c2ccc(F)nc2)ccn1` [Example 277, N-(4-(3-(6-Fluoropyridin-3-yl)-7-(hydroxymethyl)-1H-pyrrolo[3,2-b]pyridin-2-yl)pyridin-2-yl)acetamide], for which the IC50 in test [1] turned out to be 0.01 µM; in test [2], 0.006 µM.
As for `COc1ccc(-c2c(-c3ccnc(NC(=O)CN4CCN(C)CC4)c3)[nH]c3cc(Cl)cnc23)nc1C` [Example 238, N-(4-(6-Chloro-3-(5-methoxy-6-methylpyridin-2-yl)-1H-pyrrolo[3,2-b]pyridin-2-yl)pyridin-2-yl)-2-(4-methylpiperazin-1-yl)acetamide], the IC50 in test [1] was greater than 15 µM; in test [2] it was 0.0882 µM.
Take `COc1cnc2c(-c3ccc(F)cn3)c(-c3ccnc(NC(C)=O)c3)[nH]c2c1` [Example 49, N-{4-[3-(5-Fluoropyridin-2-yl)-6-methoxy-1H-pyrrolo[3,2-b]pyridin-2-yl]pyridin-2-yl}acetamide]: the figures for the IC50 in test [1] and in test [2] were 0.24 µM and 0.003 µM, respectively.
On to `CNc1cc(-c2[nH]c3cc(Cl)cnc3c2-c2ccc(F)cn2)ccn1` [Example 82, 4-[6-Chloro-3-(5-fluoropyridin-2-yl)-1H-pyrrolo[3,2-b]pyridin-2-yl]-N-methylpyridin-2-amine], for which the concentration for half-maximal inhibition (IC50) stood at 4.05 µM in test [1] and 0.006 µM in test [2].
Regarding `COc1cnc2c(-c3nc(C(F)F)cs3)c(-c3ccnc(NC(C)=O)c3)[nH]c2c1` [Example 227, N-(4-(3-(4-(Difluoromethyl)thiazol-2-yl)-6-methoxy-1H-pyrrolo[3,2-b]pyridin-2-yl)pyridin-2-yl)acetamide], the IC50 turned out to be 0.725 µM in test [1] and 0.0006 µM in test [2].
Take `CCOc1cnc2c(-c3ccc(OC)cn3)c(-c3ccnc(NC(C)=O)c3)[nH]c2c1` [Example 96, N-(4-(6-Ethoxy-3-(5-methoxypyridin-2-yl)-1H-pyrrolo[3,2-b]pyridin-2-yl)pyridin-2-yl)acetamide]: the 50% inhibitory concentration (IC50) is greater than 15 µM in test [1] and 0.001 µM in test [2].
For the molecule `COc1ccc(-c2c(-c3ccnc(NC(C)=O)c3)[nH]c3cc(F)cnc23)cn1` [Example 40, N-{4-[6-Fluoro-3-(6-methoxypyridin-3-yl)-1H-pyrrolo[3,2-b]pyridin-2-yl]pyridin-2-yl}acetamide], the IC50 is 0.067 µM in test [1] and 0.005 µM in test [2].
With `COc1ccc(-c2c(-c3ccnc(NC(C)=O)c3)[nH]c3c(CN)ccnc23)cn1` [Example 81, N-(4-(7-(Aminomethyl)-3-(6-methoxypyridin-3-yl)-1H-pyrrolo[3,2-b]pyridin-2-yl)pyridin-2-yl)acetamide], the figures for the IC50 in test [1] and in test [2] were 0.26 µM and 0.014 µM, respectively.
Regarding `CC(=O)Nc1cc(-c2[nH]c3c(CO)ccnc3c2-c2cccc(C)n2)ccn1` [Example 279, N-(4-(7-(Hydroxymethyl)-3-(6-methylpyridin-2-yl)-1H-pyrrolo[3,2-b]pyridin-2-yl)pyridin-2-yl)acetamide], the half-maximal inhibitory concentration (IC50) in test [1] turned out to be 9.9 µM; in test [2] it was 0.006 µM.
